This note sets out measurements from US6911443B2 (Bayer Aktiengesellschaft, priority 2000, dated 2005).

Molecules are shown by their SMILES. pIC50: −log10 of the molar value.

For the first experiment, the target named is T1, human Syk (GST-Syk) (Homo sapiens, UniProt P43405).
T1 construct: A cDNA fragment encoding human Syk openreading frame was cloned; made in house; host or cells: Sf21 insect cells (baculovirus, transfer vector pAcG2T)
Nature of the experiment: Syk tyrosine kinase inhibitory assay. It is filed as biochemical. The conditions noted are these: Table 11; read-out: Activity grade. Put shortly: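 GST-tagged human Syk from baculovirus/Sf21, 0.65 nM final, with 3 μM biotinylated 30-residue activation-loop peptide and 30 μM ATP in Tris pH 8.0/MgCl2 buffer, 0.25% DMSO; 1 h at room temperature. Phosphopeptide captured on streptavidin, detected by europium-labelled anti-phosphotyrosine 4G10 time-resolved fluorescence.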
Turning to `COc1ccc(-c2cc3nccn3c(Nc3cnccc3C(N)=O)n2)cc1OC` [Example 12-45], the pIC50 is greater than 6.30.

On to `COc1cc(-c2cc3nccn3c(Nc3ccc(Br)cc3)n2)ccc1N1CCOCC1` [Example 12-53], for which the pIC50 was greater than 6.30.

On to `COc1ccc(-c2cc3nccn3c(Nc3ccccc3)n2)cc1O` [Example 12-10], for which the pIC50 is greater than 6.30.

Consider `CCOCCOc1ccc(-c2cc3nccn3c(Nc3ccccc3)n2)cc1OC` [Example 12-20], for which the pIC50 is greater than 6.30.

As for `COC(=O)c1ccc(Nc2nc(-c3ccc(OC)c(OC)c3)cc3nccn23)s1` [Example 12-5], the pIC50 was 5.70 to 6.30.

For the compound `COc1cc(-c2cc3nccn3c(Nc3ccccc3S(C)(=O)=O)n2)ccc1N1CCOCC1` [Example 12-57], the pIC50 was greater than 6.30.

As to `COc1ccc(-c2cc3nccn3c(Nc3ccccc3)n2)cc1OCc1ccccc1` [Example 12-27], the pIC50 was 5.00 to 5.70.

On to `CCOCCOc1cc(-c2cc3nccn3c(Nc3ccccc3)n2)ccc1OC` [Example 12-28], for which the pIC50 was greater than 6.30.

As to `COc1cc(-c2cc3nccn3c(Nc3ccccc3)n2)ccc1OCc1ccccc1` [Example 12-18], the pIC50 is 5.70 to 6.30.

Staying with this experiment, now noted: Table 13; read-out: Activity grade.
Take `COc1ccc(-c2cc3nccn3c(SCc3ccccc3)n2)cc1OC` [Example 14-2]: the pIC50 was greater than 6.30.

For the compound `CCC(C)CSc1nc(-c2ccc(OC)c(OC)c2)cc2nccn12` (centres unmarked) [Example 14-23], the pIC50 was 5.70 to 6.30.

Consider `CCOC(=O)C(C)Sc1nc(-c2ccc(OC)c(OC)c2)cc2nccn12` (centres unmarked) [Example 14-14], for which the pIC50 is 5.70 to 6.30.

On to `COc1ccc(CSc2nc(-c3ccc(OC)c(OC)c3)cc3nccn23)cc1` [Example 14-1], for which the pIC50 is 5.70 to 6.30.

Take `COc1ccc(-c2cc3ncnn3c(Sc3ccc(NCC(=O)O)cc3)n2)cc1OC` [Example 14-11]: the pIC50 was greater than 6.30.

On to `COc1ccc(-c2cc3nccn3c(Oc3cccc(Br)c3)n2)cc1OC` [Example 14-5], for which the pIC50 was 5.70 to 6.30.

The experiment is the same for the next values; noted with them: Table 14; read-out: Activity grade.
Consider `COc1ccc(-c2cc3nccn3c(NC3CCCCC3)n2)cc1OC` [Example 15-4], for which the pIC50 is 5.70 to 6.30.

In the case of `COc1ccc(-c2cc3nccn3c(Sc3ccc(SCC(=O)O)cc3)n2)cc1OC` [Example 15-3], the pIC50 was greater than 6.30.

Still in this experiment, the particulars now being: Table 15; read-out: Activity grade.
As for `COc1ccc(-c2cc3nccn3c(Sc3ccc(S(=O)(=O)N4CCCCC4)cc3)n2)cc1OC` [Example 16-2], the pIC50 is greater than 6.30.

Staying with this experiment, now noted: Table 16; read-out: Activity grade.
As for `CCSc1nc(-c2ccc(OCCOC)c(OC)c2)cc2nccn12` [Example 17-10], the pIC50 was 5.70 to 6.30.

With `CCSc1nc(-c2ccc(NCCCN3CCOCC3)c(OC)c2)cc2nccn12` [Example 17-12], the pIC50 is greater than 6.30.

The same experiment, now with this note: Table 17; IC50 classes; read-out: Activity grade.
As to `COc1ccc(-c2cc3nccn3c(NC(=O)c3ccccc3)n2)cc1OC` [Example 16], the pIC50 is 5.70 to 6.30.

For the compound `COc1ccc(-c2cc3nccn3c(Sc3ccc(CCc4nnn[nH]4)cc3)n2)cc1OC` [Example 24], the pIC50 was greater than 6.30.

Take `COc1ccc(-c2cc3nccn3c(N(C)c3ccccn3)n2)cc1OC` [compound 4]: the pIC50 was 5.00 to 5.70.

Take `COc1ccc(-c2cc3nccn3c(Nc3ccc(CC(N)C(=O)OC(C)C)cc3)n2)cc1OC` (centres unmarked) [Example 29]: the pIC50 was greater than 6.30.

Take `COc1ccc(-c2cc3nccn3c(Nc3ccccc3)n2)cc1NC(C)=O` [Example 3]: the pIC50 was greater than 6.30.

On to `Cc1c(N)cccc1Oc1nc(-c2ccc(OC3CCCC3)c(O)c2)cc2ncnn12` [compound 15], for which the pIC50 was 5.00 to 5.70.

Still in this experiment, the particulars now being: in vitro; compounds as yielded by solid phase synthesis, purity about 40 to 90%.
Consider `CCSc1nc(-c2ccc(F)c(F)c2)cc2nccn12` [Example 8-7], for which the “Activity grade (IC50 class)” value was “C-D”.

In the case of `COC(=O)[C@@H]1CCCN1c1nc(-c2ccc(OC)c(OC)c2)cc2nccn12` [Example 9-71], the “Activity grade (IC50 class)” value is “C-D”.

The experiment is the same for the next values; noted with them: in vitro; compounds as yielded by solid phase synthesis, purity about 40 to 90%; read-out: Activity grade (IC50 class).
`COc1ccc(-c2cc3nccn3c(NC(=O)c3ccccc3)n2)cc1OC` [Example 16]: the pIC50 is greater than 6.30.

As to `COc1ccc(-c2cc3nccn3c(Nc3ccc(CC(=O)O)cc3)n2)cc1OC` [Example 11-22], the pIC50 was greater than 6.30.

Regarding `COc1ccc(-c2cc3nccn3c(Nc3ccc4c(c3)[nH]c(=O)n4C)n2)cc1OC` [Example 11-118], the pIC50 was greater than 6.30.

In the case of `CCOC(=O)CN(C)c1nc(-c2ccc(OC)c(OC)c2)cc2nccn12` [Example 9-77], the pIC50 was 5.00 to 5.70.

On to `CCSc1nc(-c2ccc(OC3CCCCC3)c(OC)c2)cc2nccn12` [Example 3-6], for which the pIC50 is 5.70 to 6.30.

Take `COc1ccc(-c2cc3nccn3c(Sc3ccc(CCC(=O)O)cc3)n2)cc1O` [Example 13-24]: the pIC50 is greater than 6.30.

`CCSc1nc(-c2ccc(OC)c(OCCCN3CC[C@H](N(C)C)C3)c2)cc2nccn12` [Example 5-5]: the pIC50 is 5.70 to 6.30.

For `COc1ccc(-c2cc3nccn3c(NCCc3c[nH]c4ccccc34)n2)cc1OC` [Example 9-83], the pIC50 is greater than 6.30.

As for `COc1ccc(-c2cc3nccn3c(Nc3ccc(C(=N)N)cc3)n2)cc1OC` [Example 11-67], the pIC50 was greater than 6.30.

In the case of `COc1ccc(-c2cc3nccn3c(NCc3ccccc3)n2)cc1OC` [Example 9-10], the pIC50 is 5.70 to 6.30.

As to `COc1ccc(-c2cc3nccn3c(N3CCN(c4ccc(Cl)cc4)CC3)n2)cc1OC` [Example 9-39], the pIC50 was 5.00 to 5.70.

`CCSc1nc(-c2ccc(OC)c(OC(C)C)c2)cc2nccn12` [Example 4-3]: the pIC50 was greater than 6.30.

With `COc1ccc(Nc2nc(-c3ccc(OC)c(OC)c3)cc3nccn23)cc1NC(=O)CN1CCOCC1` [Example 11-83], the pIC50 was 5.70 to 6.30.

As for `COc1ccc(-c2cc3nccn3c(Nc3cccc(O)c3)n2)cc1OC` [Example 11-30], the pIC50 was greater than 6.30.

In the case of `COc1ccc(N2CCN(c3nc(-c4ccc(OC)c(OC)c4)cc4nccn34)CC2)cc1` [Example 9-40], the pIC50 is 5.00 to 5.70.

Consider `CCOc1ccc(-c2cc3nccn3c(SCC)n2)cc1OCC` [Example 6-1], for which the pIC50 is greater than 6.30.

Take `COC(=O)[C@H](Cc1ccc(O)cc1)Nc1nc(-c2ccc(OC)c(OC)c2)cc2nccn12` [Example 9-2]: the pIC50 is 5.00 to 5.70.

For the compound `COc1ccc(-c2cc3nccn3c(N3CCN(Cc4ccc5c(c4)OCO5)CC3)n2)cc1OC` [Example 9-32], the pIC50 is 5.00 to 5.70.

With `COc1ccc(-c2cc3nccn3c(N[C@@H](CO)Cc3ccccc3)n2)cc1OC` [Example 9-5], the pIC50 was 5.70 to 6.30.

Consider `COc1ccc(N(C)c2nc(-c3ccc(OC)c(OC)c3)cc3nccn23)cc1` [Example 11-49], for which the pIC50 is 5.70 to 6.30.

`COc1ccc(-c2cc3nccn3c(Nc3cccc(C(=O)O)c3C)n2)cc1OC` [Example 11-51]: the pIC50 is 5.70 to 6.30.

As to `COc1ccc(-c2cc3nccn3c(N(C)CCC(O)c3ccccc3)n2)cc1OC` (centres unmarked) [Example 9-53], the pIC50 was greater than 6.30.

Consider `COc1ccc(Nc2nc(-c3ccc(OC)c(OC)c3)cc3nccn23)cc1NCCN1CCOCC1` [Example 11-111], for which the pIC50 was 5.00 to 5.70.

For the compound `COc1ccc(-c2cc3nccn3c(Nc3ccc4[nH]c(=O)[nH]c4c3)n2)cc1OC` [Example 11-89], the pIC50 is greater than 6.30.

Regarding `COc1ccc(-c2cc3nccn3c(Nc3ccc(Br)cc3C(=O)O)n2)cc1OC` [Example 11-85], the pIC50 was greater than 6.30.

For the compound `COc1ccc(-c2cc3nccn3c(Nc3cc(F)cc(F)c3)n2)cc1OC` [Example 11-39], the pIC50 was greater than 6.30.

`COC(=O)C1CCN(c2nc(-c3ccc(OC)c(OC)c3)cc3nccn23)CC1` [Example 9-67]: the pIC50 is 5.00 to 5.70.

In the case of `CCSc1cc(-c2cccc([N+](=O)[O-])c2)cc2nccn12` [Example 8-6], the pIC50 was 5.70 to 6.30.

For `COc1ccc(-c2cc3nccn3c(Sc3ccccc3Br)n2)cc1OC` [Example 13-6], the pIC50 was greater than 6.30.

For `COc1ccccc1Nc1nc(-c2ccc(OC)c(OC)c2)cc2nccn12` [Example 11-8], the pIC50 is greater than 6.30.

Regarding `COc1ccc(-c2cc3nccn3c(N3CCN(c4ccccc4)CC3)n2)cc1OC` [Example 9-33], the pIC50 is 5.00 to 5.70.

Turning to `CCSc1nc(-c2ccc(OCCCN3CCOCC3)c(OC)c2)cc2nccn12` [Example 5-1], the pIC50 is greater than 6.30.

On to `COc1ccc(-c2cc3nccn3c(Sc3ccccc3OC)n2)cc1OC` [Example 13-2], for which the pIC50 was greater than 6.30.

Take `COc1ccc(CNc2nc(-c3ccc(OC)c(OC)c3)cc3nccn23)c(OC)c1` [Example 9-80]: the pIC50 is 5.70 to 6.30.

In the case of `COc1ccc(-c2cc3nccn3c(Sc3nccn3C)n2)cc1OC` [Example 13-12], the pIC50 is greater than 6.30.

In the case of `COc1ccc(-c2cc3nccn3c(Nc3ccccc3[N+](=O)[O-])n2)cc1OC` [Example 11-56], the pIC50 was greater than 6.30.

Turning to `CCSc1nc(-c2ccc(OC)c(OCCCN3CCCCC3)c2)cc2nccn12` [Example 5-6], the pIC50 is 5.70 to 6.30.

Turning to `CNC(=O)c1cccc(Nc2nc(-c3ccc(OC)c(OC)c3)cc3nccn23)c1` [Example 11-72], the pIC50 was greater than 6.30.

With `CCSc1nc(-c2ccc(OCCN3CC(C)OC(C)C3)c(OC)c2)cc2nccn12` (centres unmarked) [Example 5-14], the pIC50 is greater than 6.30.

In the case of `COc1ccc(-c2cc3nccn3c(Sc3cccc(N)c3)n2)cc1OC` [Example 13-3], the pIC50 was greater than 6.30.

Turning to `COc1ccc(-c2cc3nccn3c(N3CCC(O)CC3)n2)cc1OC` [Example 9-69], the pIC50 was 5.70 to 6.30.

For `CCSc1nc(-c2ccc(OC)c(OCCN3CCOCC3)c2)cc2nccn12` [Example 5-12], the pIC50 was 5.70 to 6.30.

Consider `COc1ccc(-c2cc3ncnn3c(Nc3ccc4cn[nH]c4c3)n2)cc1OC` [Example 11-103], for which the pIC50 is greater than 6.30.

As to `CCCCOc1ccc(Nc2nc(-c3ccc(OC)c(OC)c3)cc3nccn23)cc1` [Example 11-94], the pIC50 is 5.00 to 5.70.

As to `COc1ccc(-c2cc3nccn3c(N(C)C3CCN(C)C3)n2)cc1OC` (centres unmarked) [Example 9-74], the pIC50 is 5.70 to 6.30.

`CCSc1nc(-c2ccc(OCCCN3CCN(C)CC3)c(OC)c2)cc2nccn12` [Example 5-8]: the pIC50 is greater than 6.30.
